One may read the AC50 as the concentration at which the activity in the assay is half-maximal. Low values mean greater potency, high ones weaker potency.

One experiment has as its target T1, B2 bradykinin receptor (Homo sapiens, UniProt P30411).
T1 sequence (P30411 whole entry): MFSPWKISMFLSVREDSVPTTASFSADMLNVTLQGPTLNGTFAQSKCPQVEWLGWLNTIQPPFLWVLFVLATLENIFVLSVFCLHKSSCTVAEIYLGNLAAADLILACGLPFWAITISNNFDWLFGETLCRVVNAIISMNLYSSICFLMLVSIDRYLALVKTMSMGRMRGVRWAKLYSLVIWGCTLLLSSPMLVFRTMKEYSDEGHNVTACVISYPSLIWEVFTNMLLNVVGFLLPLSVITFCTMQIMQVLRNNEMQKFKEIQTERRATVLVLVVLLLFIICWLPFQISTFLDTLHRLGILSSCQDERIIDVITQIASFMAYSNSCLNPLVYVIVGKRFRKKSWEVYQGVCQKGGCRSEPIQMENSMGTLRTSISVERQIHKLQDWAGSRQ

The target of experiment [1] is Beta-1 adrenergic receptor (Homo sapiens, UniProt P08588). It counts as functional.
Sequence of Beta-1 adrenergic receptor (P08588 whole entry): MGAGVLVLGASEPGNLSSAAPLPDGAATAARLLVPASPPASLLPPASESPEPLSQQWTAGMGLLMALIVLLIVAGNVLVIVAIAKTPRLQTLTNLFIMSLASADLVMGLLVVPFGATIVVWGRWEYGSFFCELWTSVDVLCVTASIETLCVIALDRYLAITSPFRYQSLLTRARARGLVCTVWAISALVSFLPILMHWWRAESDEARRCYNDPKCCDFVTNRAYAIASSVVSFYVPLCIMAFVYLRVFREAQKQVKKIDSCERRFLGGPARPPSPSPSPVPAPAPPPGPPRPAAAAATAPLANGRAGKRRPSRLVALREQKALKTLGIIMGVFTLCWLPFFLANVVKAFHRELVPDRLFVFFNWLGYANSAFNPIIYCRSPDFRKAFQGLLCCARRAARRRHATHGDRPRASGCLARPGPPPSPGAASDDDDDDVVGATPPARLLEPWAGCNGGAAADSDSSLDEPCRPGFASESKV
Experiment [2] deals with Kappa-type opioid receptor (Homo sapiens, UniProt P41145).
Sequence of Kappa-type opioid receptor (P41145 whole entry): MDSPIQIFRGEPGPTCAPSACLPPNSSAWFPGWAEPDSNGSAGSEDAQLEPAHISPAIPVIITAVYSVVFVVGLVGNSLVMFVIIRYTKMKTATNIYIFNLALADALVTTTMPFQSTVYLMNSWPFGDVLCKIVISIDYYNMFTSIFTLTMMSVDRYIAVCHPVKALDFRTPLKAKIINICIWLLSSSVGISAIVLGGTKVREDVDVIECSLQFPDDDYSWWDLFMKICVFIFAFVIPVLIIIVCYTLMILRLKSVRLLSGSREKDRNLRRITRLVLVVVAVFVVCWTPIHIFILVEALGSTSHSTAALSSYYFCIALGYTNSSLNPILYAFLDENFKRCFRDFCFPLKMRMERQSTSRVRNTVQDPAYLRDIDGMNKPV
Another experiment addresses Melanocortin receptor 3 (Homo sapiens, UniProt P41968).
For experiment [3], the target named is 3',5'-cyclic-AMP phosphodiesterase 4D (Homo sapiens, UniProt Q08499). It counts as functional.
Sequence of 3',5'-cyclic-AMP phosphodiesterase 4D (Q08499 whole entry): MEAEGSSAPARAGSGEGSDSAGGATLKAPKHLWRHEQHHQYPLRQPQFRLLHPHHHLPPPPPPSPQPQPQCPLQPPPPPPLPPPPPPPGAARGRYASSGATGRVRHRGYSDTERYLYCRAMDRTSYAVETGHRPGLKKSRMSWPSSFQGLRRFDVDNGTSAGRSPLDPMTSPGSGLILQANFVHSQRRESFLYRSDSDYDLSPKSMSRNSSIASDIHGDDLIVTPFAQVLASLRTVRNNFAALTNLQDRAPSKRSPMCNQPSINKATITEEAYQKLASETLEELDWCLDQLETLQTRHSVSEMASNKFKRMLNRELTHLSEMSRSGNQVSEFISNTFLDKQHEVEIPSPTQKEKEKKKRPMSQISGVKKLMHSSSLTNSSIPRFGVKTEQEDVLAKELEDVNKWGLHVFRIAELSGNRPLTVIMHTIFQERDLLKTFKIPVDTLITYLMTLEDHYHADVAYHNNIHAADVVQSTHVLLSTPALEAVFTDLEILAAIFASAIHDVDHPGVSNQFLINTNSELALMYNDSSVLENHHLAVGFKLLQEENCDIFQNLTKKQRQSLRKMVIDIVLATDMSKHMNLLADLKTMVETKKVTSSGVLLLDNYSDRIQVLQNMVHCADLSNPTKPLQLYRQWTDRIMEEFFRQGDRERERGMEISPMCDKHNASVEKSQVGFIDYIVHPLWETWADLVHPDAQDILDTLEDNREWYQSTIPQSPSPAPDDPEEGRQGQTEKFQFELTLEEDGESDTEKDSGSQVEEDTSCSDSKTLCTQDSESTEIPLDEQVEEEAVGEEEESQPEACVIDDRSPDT
Experiment [4] concerns the target Gamma-aminobutyric acid receptor subunit alpha-1 (Rattus norvegicus, UniProt P62813). The format is functional.
A further experiment addresses T2, Adenosine receptor A1 (Homo sapiens, UniProt P30542).
T2 sequence (P30542 whole entry): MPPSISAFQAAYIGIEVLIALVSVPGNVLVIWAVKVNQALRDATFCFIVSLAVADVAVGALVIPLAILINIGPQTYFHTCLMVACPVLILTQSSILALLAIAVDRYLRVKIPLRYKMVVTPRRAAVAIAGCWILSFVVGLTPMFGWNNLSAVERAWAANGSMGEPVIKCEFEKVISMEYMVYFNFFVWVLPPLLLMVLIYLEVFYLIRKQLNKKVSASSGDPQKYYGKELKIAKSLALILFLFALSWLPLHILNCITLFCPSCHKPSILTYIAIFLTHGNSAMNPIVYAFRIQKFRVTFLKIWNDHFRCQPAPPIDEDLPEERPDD

Experiment [5] concerns the target T3, Alpha-2C adrenergic receptor (Homo sapiens, UniProt P18825).
T3 sequence (P18825 whole entry): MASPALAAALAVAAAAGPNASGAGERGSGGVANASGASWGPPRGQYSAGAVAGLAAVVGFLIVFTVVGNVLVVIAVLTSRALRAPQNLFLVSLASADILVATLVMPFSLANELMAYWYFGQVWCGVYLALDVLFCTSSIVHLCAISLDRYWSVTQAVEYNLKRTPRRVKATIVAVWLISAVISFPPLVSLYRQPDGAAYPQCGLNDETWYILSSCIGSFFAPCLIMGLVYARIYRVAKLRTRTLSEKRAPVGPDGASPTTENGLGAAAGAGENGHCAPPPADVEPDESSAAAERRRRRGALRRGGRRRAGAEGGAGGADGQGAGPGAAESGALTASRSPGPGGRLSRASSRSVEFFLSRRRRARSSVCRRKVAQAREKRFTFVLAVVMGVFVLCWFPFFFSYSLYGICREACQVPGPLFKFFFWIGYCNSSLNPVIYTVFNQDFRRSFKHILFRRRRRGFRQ
The format is functional.

Experiment [6] has as its target cGMP-inhibited 3',5'-cyclic phosphodiesterase 3A (Homo sapiens, UniProt Q14432). It counts as functional.
Experiment [7] concerns the target T4, Neuropeptide Y receptor type 1 (Homo sapiens, UniProt P25929).
T4 sequence (P25929 whole entry): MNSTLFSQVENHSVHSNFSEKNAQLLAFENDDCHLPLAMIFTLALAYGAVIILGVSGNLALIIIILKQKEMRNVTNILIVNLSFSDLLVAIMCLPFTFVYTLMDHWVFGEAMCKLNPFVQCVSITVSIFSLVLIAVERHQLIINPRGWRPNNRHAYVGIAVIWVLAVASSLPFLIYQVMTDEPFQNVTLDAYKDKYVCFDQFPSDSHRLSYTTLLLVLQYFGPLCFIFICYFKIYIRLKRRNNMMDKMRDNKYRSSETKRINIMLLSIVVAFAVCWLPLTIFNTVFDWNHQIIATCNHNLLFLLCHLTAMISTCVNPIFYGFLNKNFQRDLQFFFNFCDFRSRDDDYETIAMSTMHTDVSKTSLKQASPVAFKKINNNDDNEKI

A further experiment deals with D(3) dopamine receptor (Homo sapiens, UniProt P35462).
Sequence of D(3) dopamine receptor (P35462 whole entry): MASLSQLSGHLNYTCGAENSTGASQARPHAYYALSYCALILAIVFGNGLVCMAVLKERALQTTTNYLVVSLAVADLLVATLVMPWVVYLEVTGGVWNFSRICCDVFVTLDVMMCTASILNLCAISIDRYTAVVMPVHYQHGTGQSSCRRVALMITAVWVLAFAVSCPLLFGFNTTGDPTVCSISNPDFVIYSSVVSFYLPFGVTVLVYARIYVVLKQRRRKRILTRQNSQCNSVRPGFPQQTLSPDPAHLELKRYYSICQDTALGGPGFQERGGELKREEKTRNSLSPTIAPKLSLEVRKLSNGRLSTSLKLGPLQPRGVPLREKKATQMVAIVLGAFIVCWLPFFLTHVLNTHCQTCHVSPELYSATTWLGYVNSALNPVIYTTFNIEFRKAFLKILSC
Experiment [8] addresses T5, Alpha-2A adrenergic receptor (Homo sapiens, UniProt P08913).
T5 sequence (P08913 whole entry): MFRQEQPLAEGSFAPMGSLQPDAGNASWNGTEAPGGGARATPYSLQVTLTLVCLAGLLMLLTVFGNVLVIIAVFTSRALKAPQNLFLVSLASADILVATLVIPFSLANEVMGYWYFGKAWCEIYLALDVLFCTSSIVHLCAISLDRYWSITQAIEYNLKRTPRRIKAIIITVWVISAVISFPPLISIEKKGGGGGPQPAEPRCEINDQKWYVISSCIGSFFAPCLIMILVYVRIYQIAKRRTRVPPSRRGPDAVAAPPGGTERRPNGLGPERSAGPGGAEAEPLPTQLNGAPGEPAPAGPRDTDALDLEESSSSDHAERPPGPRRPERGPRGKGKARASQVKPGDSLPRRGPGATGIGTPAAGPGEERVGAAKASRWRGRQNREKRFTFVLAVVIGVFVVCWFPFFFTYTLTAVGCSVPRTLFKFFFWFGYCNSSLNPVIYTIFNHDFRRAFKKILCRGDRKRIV
It counts as functional, cell-based.

Bounds are passed on as bounds.
Further: assay procedure not described here.

Sequence of Melanocortin receptor 3 (P41968 whole entry): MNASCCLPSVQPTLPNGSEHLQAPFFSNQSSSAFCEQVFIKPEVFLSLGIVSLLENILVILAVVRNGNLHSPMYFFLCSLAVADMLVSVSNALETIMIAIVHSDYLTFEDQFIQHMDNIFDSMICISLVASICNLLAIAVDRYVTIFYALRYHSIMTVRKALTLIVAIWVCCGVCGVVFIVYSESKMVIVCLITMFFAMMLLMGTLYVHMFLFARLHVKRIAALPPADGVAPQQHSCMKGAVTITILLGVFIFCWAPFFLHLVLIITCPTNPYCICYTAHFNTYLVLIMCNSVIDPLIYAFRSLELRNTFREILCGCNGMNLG
Sequence of cGMP-inhibited 3',5'-cyclic phosphodiesterase 3A (Q14432 whole entry): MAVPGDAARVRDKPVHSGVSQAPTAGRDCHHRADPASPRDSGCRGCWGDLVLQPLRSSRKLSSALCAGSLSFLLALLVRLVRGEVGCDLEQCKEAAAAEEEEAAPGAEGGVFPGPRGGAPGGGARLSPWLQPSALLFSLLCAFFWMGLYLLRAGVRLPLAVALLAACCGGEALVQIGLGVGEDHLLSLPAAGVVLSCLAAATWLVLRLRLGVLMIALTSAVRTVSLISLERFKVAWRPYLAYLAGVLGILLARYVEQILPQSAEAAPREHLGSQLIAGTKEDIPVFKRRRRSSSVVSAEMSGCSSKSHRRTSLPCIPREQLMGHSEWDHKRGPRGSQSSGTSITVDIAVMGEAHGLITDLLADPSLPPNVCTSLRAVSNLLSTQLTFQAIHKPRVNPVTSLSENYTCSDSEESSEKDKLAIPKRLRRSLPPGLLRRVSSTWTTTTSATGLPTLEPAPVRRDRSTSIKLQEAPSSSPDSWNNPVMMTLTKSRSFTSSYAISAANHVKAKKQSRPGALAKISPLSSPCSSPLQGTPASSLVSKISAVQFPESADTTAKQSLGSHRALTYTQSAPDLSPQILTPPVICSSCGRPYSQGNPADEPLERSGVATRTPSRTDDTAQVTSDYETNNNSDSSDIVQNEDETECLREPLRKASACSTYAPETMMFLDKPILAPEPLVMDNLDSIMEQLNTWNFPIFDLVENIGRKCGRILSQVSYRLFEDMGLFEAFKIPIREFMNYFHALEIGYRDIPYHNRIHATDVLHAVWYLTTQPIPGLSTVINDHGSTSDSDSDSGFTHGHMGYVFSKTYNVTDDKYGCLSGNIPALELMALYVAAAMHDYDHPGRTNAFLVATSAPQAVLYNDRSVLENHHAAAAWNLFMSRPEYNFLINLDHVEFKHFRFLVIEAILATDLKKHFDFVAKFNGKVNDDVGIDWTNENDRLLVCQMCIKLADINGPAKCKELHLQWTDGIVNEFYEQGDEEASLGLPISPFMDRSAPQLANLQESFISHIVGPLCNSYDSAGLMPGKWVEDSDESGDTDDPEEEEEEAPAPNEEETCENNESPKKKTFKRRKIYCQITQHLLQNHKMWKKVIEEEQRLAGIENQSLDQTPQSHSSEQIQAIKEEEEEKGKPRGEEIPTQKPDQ
Sequence of Gamma-aminobutyric acid receptor subunit alpha-1 (P62813 whole entry): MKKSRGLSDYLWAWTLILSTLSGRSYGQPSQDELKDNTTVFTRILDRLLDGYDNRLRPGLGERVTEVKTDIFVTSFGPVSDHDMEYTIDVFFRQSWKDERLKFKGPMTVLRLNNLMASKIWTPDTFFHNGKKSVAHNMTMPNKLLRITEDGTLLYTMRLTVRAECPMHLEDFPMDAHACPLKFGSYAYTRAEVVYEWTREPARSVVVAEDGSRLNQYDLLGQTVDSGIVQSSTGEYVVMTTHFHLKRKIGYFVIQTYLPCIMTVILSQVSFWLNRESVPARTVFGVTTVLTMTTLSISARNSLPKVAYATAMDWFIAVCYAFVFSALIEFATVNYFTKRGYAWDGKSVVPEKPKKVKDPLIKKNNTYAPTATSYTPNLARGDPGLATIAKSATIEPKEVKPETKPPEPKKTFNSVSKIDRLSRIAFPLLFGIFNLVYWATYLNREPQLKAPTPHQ

`C[C@]1(COc2ccc(N3CCC(Oc4ccc(OC(F)(F)F)cc4)CC3)cc2)Cn2cc([N+](=O)[O-])nc2O1`: the AC50 at B2 bradykinin receptor is > 30 µM; in experiment [1], > 10 µM; in experiment [2], > 10 µM; on Melanocortin receptor 3, > 30 µM; in experiment [3] it was > 30 µM; in [4], > 10 µM. For the same compound, the AC50 was > 30 µM on Adenosine receptor A1, > 10 µM in experiment [5], > 30 µM in [6] and > 30 µM in [7].

`C[C@]12CC[C@H](O)CC1=CC[C@@H]1[C@@H]2CC[C@]2(C)C(c3cccnc3)=CC[C@@H]12` [ABIRATERONE]: the AC50 at B2 bradykinin receptor is > 30 µM; in experiment [1], > 30 µM; in experiment [2] it was > 10 µM; on Melanocortin receptor 3, > 30 µM; at D(3) dopamine receptor, > 30 µM; in experiment [3] it was > 30 µM. Also, the AC50 is > 10 µM in experiment [4]; > 30 µM on Adenosine receptor A1; > 10 µM in [8]; > 10 µM in [5]; > 30 µM in experiment [6]; > 30 µM in experiment [7].

As to `O=C(Nc1nc(-c2cc(Cl)cs2)c(N2CCN(C3CCCCC3)CC2)s1)c1cnc(N2CCC(C(=O)O)CC2)c(Cl)c1` [AVATROMBOPAG], the AC50 (in [1]; in experiment [2]; on Melanocortin receptor 3; on D(3) dopamine receptor; in experiment [3]; in experiment [4]) was > 10 µM in each case. In addition, the AC50 (at Adenosine receptor A1; in [5]; in experiment [6]; in experiment [7]) was > 10 µM throughout.

On to `CN(C)C(=O)Oc1cc(OC(=O)N(C)C)cc(C(O)CNC(C)(C)C)c1` (stereo not drawn) [BAMBUTEROL], for which the AC50 (on B2 bradykinin receptor; in experiment [1]; at Melanocortin receptor 3; at Adenosine receptor A1; in [7]) was > 30 µM in each case.

As to `C[C@H]1C[C@H]2[C@@H]3CCC4=CC(=O)C=C[C@]4(C)[C@@]3(Cl)[C@@H](O)C[C@]2(C)[C@@]1(O)C(=O)CO` [BECLOMETHASONE], the AC50 on B2 bradykinin receptor was > 30 µM; in experiment [1], > 10 µM; in experiment [2] it was > 10 µM; at Melanocortin receptor 3 it was > 30 µM; on D(3) dopamine receptor it was > 10 µM; in [3], > 30 µM. Besides, the AC50 in experiment [4] is > 10 µM; on Adenosine receptor A1 it was > 30 µM; in experiment [5], > 10 µM; in experiment [6], > 30 µM; in experiment [7], > 30 µM.

On to `CO[C@@]1(NC(=O)CSCC#N)C(=O)N2C(C(=O)O)=C(CSc3nnnn3C)CS[C@@H]21` [CEFMETAZOLE], for which the AC50 (in [2]; at D(3) dopamine receptor; in [3]; in [4]; in experiment [8]; in experiment [5]) was > 30 µM in each case. Also, the AC50 in experiment [6] was > 30 µM.

Take `CO/N=C(\C(=O)N[C@@H]1C(=O)N2C(C(=O)[O-])=C(C[n+]3cccc4c3CCC4)CS[C@H]12)c1csc(N)n1` [CEFPIROME]: the AC50 (in experiment [2]; at D(3) dopamine receptor; in experiment [3]; in [4]; in experiment [8]; in experiment [5]) was > 30 µM each time. In addition, the AC50 in [6] was > 30 µM.

On to `CC[C@H]1OC(=O)[C@H](C)[C@@H](O[C@H]2C[C@@](C)(OC)[C@@H](O)[C@H](C)O2)[C@H](C)[C@@H](O[C@@H]2O[C@H](C)C[C@H](N(C)C)[C@H]2O)[C@](C)(OC)C[C@@H](C)C(=O)[C@H](C)[C@@H](O)[C@]1(C)O` [CLARITHROMYCIN], for which the AC50 (on B2 bradykinin receptor; in experiment [1]; on Melanocortin receptor 3; in experiment [3]; on Adenosine receptor A1; in [8]) was > 30 µM in each case. Further, the AC50 in experiment [5], in [6] and in experiment [7] was > 30 µM in each case.

Regarding `Oc1c(I)cc(Cl)c2cccnc12` [CLIOQUINOL], the AC50 (in experiment [2]; on D(3) dopamine receptor; in experiment [4]; in [8]; in [5]; in [6]) was > 30 µM each time.

With `COc1ccc2c(c1)[C@]13CCCC[C@@H]1[C@H](C2)N(C)CC3` [DEXTROMETHORPHAN], the AC50 was > 30 µM at B2 bradykinin receptor; > 10 µM in experiment [1]; > 30 µM on Melanocortin receptor 3; > 30 µM on D(3) dopamine receptor; > 30 µM in experiment [3]; > 10 µM in experiment [4]. In addition, the AC50 was > 30 µM on Adenosine receptor A1; > 10 µM in [8]; 11 µM in experiment [5]; > 30 µM in experiment [6]; > 30 µM in [7].

Turning to `c1ccc2c(CC3=NCCN3)cccc2c1` [NAPHAZOLINE], the AC50 was 0.043 µM in experiment [8] and 0.33 µM in experiment [5].

As to `CNCCCC1c2ccccc2C=Cc2ccccc21` [PROTRIPTYLINE], the AC50 on B2 bradykinin receptor is > 10 µM; on Melanocortin receptor 3, > 10 µM; on D(3) dopamine receptor, 0.85 µM; in experiment [3], > 30 µM; in [4], > 10 µM; on Adenosine receptor A1, > 10 µM. Also, the results for the AC50 in [6] and in experiment [7] were > 30 µM and > 10 µM, respectively.

With `O=C(CCCN1CCC2(CC1)C(=O)NCN2c1ccccc1)c1ccc(F)cc1` [SPIPERONE], the AC50 at B2 bradykinin receptor was > 30 µM; in [1] it was 2.8 µM; on Melanocortin receptor 3, > 30 µM; in [3], > 30 µM; in experiment [4], > 30 µM; on Adenosine receptor A1 it was > 30 µM. The AC50 in [8] was 0.98 µM; in experiment [5], 0.369 µM; in experiment [6] it was > 30 µM; in experiment [7], > 30 µM.

As to `CCSc1ccc2c(c1)N(CCCN1CCN(C)CC1)c1ccccc1S2` [THIETHYLPERAZINE], the AC50 in [1] is > 30 µM; on Melanocortin receptor 3 it was 18 µM; in experiment [3] it was 16 µM; in experiment [5] it was 2.2 µM; in experiment [6] it was > 30 µM.
